Target: PLK1 (Homo sapiens, UniProt P53350)
Experiment: PLK1 Inhibition Assay I (radioactive-phosphate incorporation)
Assay type: biochemical
Conditions: Ki(app); PLK1 Inhibition Assay I or II (table does not say which)
How it was run: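 Ki(app) values came from non-linear regression of initial rates after background subtraction, with phosphopeptide measured by phosphocellulose filter binding and scintillation counting. PLK1 at 2 nM was preincubated with compound (typically from 10 μM, 2-fold dilutions) for 10 min, then run 240 min at 25° C with 350 μM [γ-33P]ATP and 450 μM peptide substrate in HEPES pH 7.5 buffer.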

Sequence of PLK1 (P53350 whole entry): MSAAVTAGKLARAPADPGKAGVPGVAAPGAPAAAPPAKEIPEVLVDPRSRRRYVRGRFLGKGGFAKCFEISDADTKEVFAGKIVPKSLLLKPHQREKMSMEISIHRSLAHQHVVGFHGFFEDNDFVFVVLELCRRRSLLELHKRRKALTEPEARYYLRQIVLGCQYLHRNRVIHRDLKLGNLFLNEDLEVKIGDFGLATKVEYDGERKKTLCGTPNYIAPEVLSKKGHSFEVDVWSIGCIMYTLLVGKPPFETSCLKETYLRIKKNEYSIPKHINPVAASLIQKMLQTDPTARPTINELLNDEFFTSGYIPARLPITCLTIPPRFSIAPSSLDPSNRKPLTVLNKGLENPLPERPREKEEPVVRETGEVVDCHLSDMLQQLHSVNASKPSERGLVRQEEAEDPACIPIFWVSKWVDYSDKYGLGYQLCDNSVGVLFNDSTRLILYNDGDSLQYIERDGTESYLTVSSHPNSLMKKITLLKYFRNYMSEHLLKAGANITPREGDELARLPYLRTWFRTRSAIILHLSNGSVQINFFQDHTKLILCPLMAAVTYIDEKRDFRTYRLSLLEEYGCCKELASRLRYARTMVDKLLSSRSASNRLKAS

Compound | Ki
C[C@@H](Nc1ncc(C#N)c(-c2c[nH]c3ncc(C(F)(F)F)cc23)n1)c1ccc(N2CCN(Cc3ccccc3)CC2)cc1 [Compound I-130, 2-((R)-1-(4-(4-benzylpiperazin-1-yl)phenyl)ethylamino)-4-(5-(trifluoromethyl)-1H-pyrrolo[2,3-b]pyridin-3-yl)pyrimidine-5-carbonitrile] | < 3 nM
C[C@H](CN1CCOCC1)Nc1ncc(C#N)c(-c2c[nH]c3ncc(C(F)(F)F)cc23)n1 [Compound I-132, 2-((R)-1-morpholinopropan-2-ylamino)-4-(5-(trifluoromethyl)-1H-pyrrolo[2,3-b]pyridin-3-yl)pyrimidine-5-carbonitrile] | 3 to 40 nM
C[C@@H](Nc1ncc(C#N)c(-c2c[nH]c3ncc(C(F)(F)F)cc23)n1)c1ccc(N(C)C)cc1 [Compound I-133, 2-((R)-1-(4-(dimethylamino)phenyl)ethylamino)-4-(5-(trifluoromethyl)-1H-pyrrolo[2,3-b]pyridin-3-yl)pyrimidine-5-carbonitrile] | < 3 nM
CC(=O)N1CCC([C@@H](C)Nc2ncc(C#N)c(-c3c[nH]c4ncc(C(F)(F)F)cc34)n2)CC1 [Compound I-134, 2-((R)-1-(1-acetylpiperidin-4-yl)ethylamino)-4-(5-(trifluoromethyl)-1H-pyrrolo[2,3-b]pyridin-3-yl)pyrimidine-5-carbonitrile] | < 3 nM
CC(=O)N1CCC([C@H](C)Nc2ncc(C#N)c(-c3c[nH]c4ncc(C(F)(F)F)cc34)n2)CC1 [Compound I-135, 2-((S)-1-(1-acetylpiperidin-4-yl)ethylamino)-4-(5-(trifluoromethyl)-1H-pyrrolo[2,3-b]pyridin-3-yl)pyrimidine-5-carbonitrile] | 3 to 40 nM
C[C@@H](Nc1ncc(C#N)c(-c2c[nH]c3ncc(C(F)(F)F)cc23)n1)c1ccc(NS(C)(=O)=O)cc1 [Compound I-136, N-(4-((1R)-1-(5-cyano-4-(5-(trifluoromethyl)-1H-pyrrolo[2,3-b]pyridin-3-yl)pyrimidin-2-ylamino)ethyl)phenyl)methanesulfonamide] | < 3 nM
C[C@@H](Nc1ncc(C#N)c(-c2c[nH]c3ncc(C(F)(F)F)cc23)n1)c1ccc(NC(=O)C2CC2)cc1 [Compound I-137, N-(4-((1R)-1-(5-cyano-4-(5-(trifluoromethyl)-1H-pyrrolo[2,3-b]pyridin-3-yl)pyrimidin-2-ylamino)ethyl)phenyl)cyclopropanecarboxamide] | < 3 nM
CC(Nc1ncc(C#N)c(-c2c[nH]c3ncc(C(F)(F)F)cc23)n1)c1ccc(N2CCOCC2)nc1 (stereo not shown) [Compound I-138, 2-(1-(6-morpholinopyridin-3-yl)ethylamino)-4-(5-(trifluoromethyl)-1H-pyrrolo[2,3-b]pyridin-3-yl)pyrimidine-5-carbonitrile] | < 3 nM
CC(C)N1CCN(c2ccc([C@@H](C)Nc3ncc(C#N)c(-c4c[nH]c5ncc(C(F)(F)F)cc45)n3)cc2)CC1 [Compound I-140, 2-((R)-1-(4-(4-isopropylpiperazin-1-yl)phenyl)ethylamino)-4-(5-(trifluoromethyl)-1H-pyrrolo[2,3-b]pyridin-3-yl)pyrimidine-5-carbonitrile] | < 3 nM
COC(=O)Nc1ccc([C@@H](C)Nc2ncc(C#N)c(-c3c[nH]c4ncc(C(F)(F)F)cc34)n2)cc1 [Compound I-141, methyl 4-((1R)-1-(5-cyano-4-(5-(trifluoromethyl)-1H-pyrrolo[2,3-b]pyridin-3-yl)pyrimidin-2-ylamino)ethyl)phenylcarbamate] | < 3 nM
CC(Nc1ncc(C#N)c(-c2c[nH]c3ncc(C(F)(F)F)cc23)n1)c1ccc(N(C)C)nc1 (stereo not shown) [Compound I-143, 2-(1-(6-(dimethylamino)pyridin-3-yl)ethylamino)-4-(5-(trifluoromethyl)-1H-pyrrolo[2,3-b]pyridin-3-yl)pyrimidine-5-carbonitrile] | < 3 nM
CCC(=O)Nc1ccc([C@@H](C)Nc2ncc(C#N)c(-c3c[nH]c4ncc(C(F)(F)F)cc34)n2)cc1 [Compound I-144, N-(4-((1R)-1-(5-cyano-4-(5-(trifluoromethyl)-1H-pyrrolo[2,3-b]pyridin-3-yl)pyrimidin-2-ylamino)ethyl)phenyl)propionamide] | < 3 nM
C[C@@H](Nc1ncc(C#N)c(-c2c[nH]c3ncc(C(F)(F)F)cc23)n1)c1ccc(N2CCCC2=O)cc1 [Compound I-145, 2-((R)-1-(4-(2-oxopyrrolidin-1-yl)phenyl)ethylamino)-4-(5-(trifluoromethyl)-1H-pyrrolo[2,3-b]pyridin-3-yl)pyrimidine-5-carbonitrile] | < 3 nM
C[C@@H](Nc1ncc(C#N)c(-c2c[nH]c3ncc(C(F)(F)F)cc23)n1)c1ccc(O[C@H]2CCN(C)C2)cc1 [Compound I-146, 2-((R)-1-(4-((S)-1-methylpyrrolidin-3-yloxy)phenyl)ethylamino)-4-(5-(trifluoromethyl)-1H-pyrrolo[2,3-b]pyridin-3-yl)pyrimidine-5-carbonitrile] | < 3 nM
CC(Nc1ncc(C#N)c(-c2c[nH]c3ncc(C(F)(F)F)cc23)n1)C1CCN(S(C)(=O)=O)CC1 (stereo not shown) [Compound I-150, 2-(1-(1-(methylsulfonyl)piperidin-4-yl)ethylamino)-4-(5-(trifluoromethyl)-1H-pyrrolo[2,3-b]pyridin-3-yl)pyrimidine-5-carbonitrile] | < 3 nM
CNc1ccc(C(C)Nc2ncc(C#N)c(-c3c[nH]c4ncc(C(F)(F)F)cc34)n2)cn1 (stereo not shown) [Compound I-151, 2-(1-(6-(methylamino)pyridin-3-yl)ethylamino)-4-(5-(trifluoromethyl)-1H-pyrrolo[2,3-b]pyridin-3-yl)pyrimidine-5-carbonitrile] | < 3 nM
COC(=O)N1CCC(C(C)Nc2ncc(C#N)c(-c3c[nH]c4ncc(C(F)(F)F)cc34)n2)CC1 (stereo not shown) [Compound I-152, methyl 4-(1-(5-cyano-4-(5-(trifluoromethyl)-1H-pyrrolo[2,3-b]pyridin-3-yl)pyrimidin-2-ylamino)ethyl)piperidine-1-carboxylate] | < 3 nM
CCS(=O)(=O)N1CCC(C(C)Nc2ncc(C#N)c(-c3c[nH]c4ncc(C(F)(F)F)cc34)n2)CC1 (stereo not shown) [Compound I-153, 2-(1-(1-(ethylsulfonyl)piperidin-4-yl)ethylamino)-4-(5-(trifluoromethyl)-1H-pyrrolo[2,3-b]pyridin-3-yl)pyrimidine-5-carbonitrile] | < 3 nM
C[C@@H](Nc1ncc(C#N)c(-c2c[nH]c3ncc(C(F)(F)F)cc23)n1)c1ccc(OC2CCN(C)CC2)cc1 [Compound I-154, 2-((R)-1-(4-(1-methylpiperidin-4-yloxy)phenyl)ethylamino)-4-(5-(trifluoromethyl)-1H-pyrrolo[2,3-b]pyridin-3-yl)pyrimidine-5-carbonitrile] | 3 to 40 nM
CC(Nc1ncc(C#N)c(-c2c[nH]c3ncc(C(F)(F)F)cc23)n1)c1ccc(S(C)(=O)=O)cc1 (stereo not shown) [Compound I-155, 2-(1-(4-(methylsulfonyl)phenyl)ethylamino)-4-(5-(trifluoromethyl)-1H-pyrrolo[2,3-b]pyridin-3-yl)pyrimidine-5-carbonitrile] | < 3 nM
CC(Nc1ncc(C#N)c(-c2c[nH]c3ncc(C(F)(F)F)cc23)n1)C1CCN(C(=O)N(C)C)CC1 (stereo not shown) [Compound I-157, 4-(1-(5-cyano-4-(5-(trifluoromethyl)-1H-pyrrolo[2,3-b]pyridin-3-yl)pyrimidin-2-ylamino)ethyl)-N,N-dimethylpiperidine-1-carboxamide] | < 3 nM
CC(Nc1ncc(C#N)c(-c2c[nH]c3ncc(C(F)(F)F)cc23)n1)C1CCN(S(=O)(=O)C2CC2)CC1 (stereo not shown) [Compound I-158, 2-(1-(1-(cyclopropylsulfonyl)piperidin-4-yl)ethylamino)-4-(5-(trifluoromethyl)-1H-pyrrolo[2,3-b]pyridin-3-yl)pyrimidine-5-carbonitrile] | < 3 nM
CC(Nc1ncc(C#N)c(-c2c[nH]c3ncc(C(F)(F)F)cc23)n1)C1CCN(C(=O)C2CC2)CC1 (stereo not shown) [Compound I-159, 2-(1-(1-(cyclopropanecarbonyl)piperidin-4-yl)ethylamino)-4-(5-(trifluoromethyl)-1H-pyrrolo[2,3-b]pyridin-3-yl)pyrimidine-5-carbonitrile] | < 3 nM
CNC(=O)N1CCC(C(C)Nc2ncc(C#N)c(-c3c[nH]c4ncc(C(F)(F)F)cc34)n2)CC1 (stereo not shown) [Compound I-160, 4-(1-(5-cyano-4-(5-(trifluoromethyl)-1H-pyrrolo[2,3-b]pyridin-3-yl)pyrimidin-2-ylamino)ethyl)-N-methylpiperidine-1-carboxamide] | < 3 nM
C[C@H](Nc1ncc(C#N)c(-c2c[nH]c3ncc(C(F)(F)F)cc23)n1)c1ccc(O[C@H]2CCN(C)C2)cc1 [Compound I-161, 2-((S)-1-(4-((S)-1-methylpyrrolidin-3-yloxy)phenyl)ethylamino)-4-(5-(trifluoromethyl)-1H-pyrrolo[2,3-b]pyridin-3-yl)pyrimidine-5-carbonitrile] | < 3 nM
CC(Nc1ncc(C#N)c(-c2c[nH]c3ncc(C(F)(F)F)cc23)n1)c1ccc(N2CCC(O)CC2)nc1 (stereo not shown) [Compound I-162, 2-(1-(6-(4-hydroxypiperidin-1-yl)pyridin-3-yl)ethylamino)-4-(5-(trifluoromethyl)-1H-pyrrolo[2,3-b]pyridin-3-yl)pyrimidine-5-carbonitrile] | < 3 nM
CNC(=O)c1ccc([C@@H](C)Nc2ncc(C#N)c(-c3c[nH]c4ncc(C(F)(F)F)cc34)n2)cc1 [Compound I-163, 4-((1R)-1-(5-cyano-4-(5-(trifluoromethyl)-1H-pyrrolo[2,3-b]pyridin-3-yl)pyrimidin-2-ylamino)ethyl)-N-methylbenzamide] | < 3 nM
CNC(=O)c1ccc([C@H](C)Nc2ncc(C#N)c(-c3c[nH]c4ncc(C(F)(F)F)cc34)n2)cc1 [Compound I-164, 4-((1S)-1-(5-cyano-4-(5-(trifluoromethyl)-1H-pyrrolo[2,3-b]pyridin-3-yl)pyrimidin-2-ylamino)ethyl)-N-methylbenzamide] | 3 to 40 nM

Reference: patent publication US8530489B2 (Vertex Pharmaceuticals Incorporated, priority 2006, dated 2013)
